According to patent publication US10428080B2, “TBK/IKK inhibitor compounds and uses thereof” (Merck Patent GmbH, priority 2015, dated 2019):
Structures can show the parent of a compound that is named as a salt.

What was measured:
[1] = target: T1, TBK1 (Homo sapiens, UniProt Q9UHD2); assay: TBK Biochemical Assay; details: read-out: TBK1 IC50
T1 sequence (Q9UHD2 1-729): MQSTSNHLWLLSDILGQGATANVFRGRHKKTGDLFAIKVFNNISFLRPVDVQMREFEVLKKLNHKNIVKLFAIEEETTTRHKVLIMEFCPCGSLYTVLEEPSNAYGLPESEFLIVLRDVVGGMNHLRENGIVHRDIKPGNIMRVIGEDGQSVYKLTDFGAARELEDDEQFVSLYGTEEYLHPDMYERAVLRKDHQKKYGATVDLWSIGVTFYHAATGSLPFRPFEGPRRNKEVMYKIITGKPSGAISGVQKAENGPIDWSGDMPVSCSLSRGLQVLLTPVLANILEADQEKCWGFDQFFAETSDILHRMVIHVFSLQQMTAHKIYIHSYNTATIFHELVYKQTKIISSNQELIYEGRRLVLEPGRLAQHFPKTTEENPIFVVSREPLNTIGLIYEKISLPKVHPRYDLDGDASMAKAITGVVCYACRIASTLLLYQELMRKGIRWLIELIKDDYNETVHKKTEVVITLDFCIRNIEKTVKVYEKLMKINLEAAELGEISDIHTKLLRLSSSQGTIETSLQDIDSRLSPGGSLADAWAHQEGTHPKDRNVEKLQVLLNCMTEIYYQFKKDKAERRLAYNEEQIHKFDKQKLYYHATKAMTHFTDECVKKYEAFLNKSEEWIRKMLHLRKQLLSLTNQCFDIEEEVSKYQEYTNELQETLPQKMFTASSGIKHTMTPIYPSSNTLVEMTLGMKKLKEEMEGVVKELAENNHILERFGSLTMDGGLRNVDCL
Experimental: Example 482: TBK Biochemical Assay
(§1) Test compounds were transferred into Labcyte polypropylene 384 well plates (P055-25) and diluted to 3 mM using DMSO. 3 mM test compounds were dispensed using Labcyte ECHO dose response module into Greiner 784075 plates (columns 3-12 and 13-22, 10 point 1:4) so that high concentration was 30 uM final. 100 uM of a reference compound (1 uM final high concentration). Backfilling was performed if necessary so that all wells contain 1% DMSO final: […]
(§2) add 75 nl DMSO/well into columns 1, 2 and 24 using Labcyte Echo. add 75 nl 1.0 mM staurosporine/well into column 23 using Labcyte Echo ([…]) add 4.5 ul enzyme/well using multidrop dispenser add 3 ul substrate/well using multidrop dispenser incubate at 25° C. in Heidolph incubator for 90 min. add 7.5 ul 2× stop buffer using multidrop dispenser read on labchip ez reader II using TBK1.job
(§3) Raw data files were opened in the Caliper LabChip Reviewer program (Version 3.0.265.0 SP2) and peak assignments were adjusted to reflect “substrate first” with the software's post-run analysis options. A spline-fit baseline was applied using the software's analysis algorithm.

[2] = target: T2, IKKε (Homo sapiens, UniProt Q14164); assay: IKKe Biochemical Assay; details: read-out: IKKε IC50
T2 sequence (Q14164 1-716): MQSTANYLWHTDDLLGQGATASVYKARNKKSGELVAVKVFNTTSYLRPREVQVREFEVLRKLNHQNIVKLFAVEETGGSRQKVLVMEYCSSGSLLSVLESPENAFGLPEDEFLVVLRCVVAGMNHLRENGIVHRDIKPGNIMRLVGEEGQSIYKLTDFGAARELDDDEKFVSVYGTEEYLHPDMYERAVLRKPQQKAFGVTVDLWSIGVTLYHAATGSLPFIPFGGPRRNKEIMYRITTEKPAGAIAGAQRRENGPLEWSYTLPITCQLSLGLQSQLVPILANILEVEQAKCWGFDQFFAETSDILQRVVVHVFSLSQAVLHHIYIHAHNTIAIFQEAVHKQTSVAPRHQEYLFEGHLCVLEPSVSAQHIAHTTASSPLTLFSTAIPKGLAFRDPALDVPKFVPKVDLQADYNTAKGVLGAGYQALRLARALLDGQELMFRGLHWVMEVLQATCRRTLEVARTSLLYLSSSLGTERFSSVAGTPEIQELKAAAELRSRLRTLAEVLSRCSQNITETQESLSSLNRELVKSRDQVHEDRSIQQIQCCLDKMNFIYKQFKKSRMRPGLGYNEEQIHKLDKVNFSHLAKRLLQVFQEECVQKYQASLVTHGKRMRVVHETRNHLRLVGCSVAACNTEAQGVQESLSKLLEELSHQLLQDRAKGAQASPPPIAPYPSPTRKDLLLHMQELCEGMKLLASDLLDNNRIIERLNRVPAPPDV
Experimental: as §1, with “(Greiner” for “Greiner”
as §2, with “C.” for “C. in Heidolph incubator”, “buffer” for “buffer using multidrop dispenser”, “IKKε. job” for “TBK1.job”
as §3

| Compound | IC50 [1] | IC50 [2] |
| --- | --- | --- |
| COc1cc(C(=O)N2CCC(OC)CC2)ccc1-c1cc2nccc(-c3ccc(OC4CCOCC4)c(C#N)c3)c2o1 [Compound 12, 5-(2-[2-Methoxy-4-(4-methoxy-piperidine-1-carbonyl)-phenyl]-furo[3,2-b]pyridin-7-yl}-2-(tetrahydro-pyran-4-yloxy)-benzonitrile] | < 100 nM | < 100 nM |
| COc1cc(C(=O)N(C)C)ccc1-c1cc2nccc(-c3ccc(O[C@H]4[C@H](C)COC[C@@H]4C)c(C#N)c3)c2o1 [Compound 232, 4-(7-(3-cyano-4-(3,5-dimethyl-tetrahydro-2H-pyran-4-yloxy)phenyl)furo[3,2-b]pyridin-2-yl)-3-methoxy-N,N-dimethylbenzamide] | < 100 nM | < 100 nM |
| COc1cc(C(=O)N(C)C)cnc1-c1cc2ncc(F)c(-c3ccc(OC4CCOCC4)c(C#N)n3)c2o1 [Compound 351, 6-[7-[6-cyano-5-(oxan-4-yloxy)pyridin-2-yl]-6-fluorofuro[3,2-b]pyridin-2-yl]-5-methoxy-N,N-dimethylpyridine-3-carboxamide hydrochloride] | 100 to 1000 nM | 100 to 1000 nM |
| COc1cc(C(=O)NCC2CCCCC2(F)F)ccc1-c1cc2nccc(-c3ccc(NC4CCOCC4)c(C#N)c3)c2o1 (stereo not shown) [Compound 180, 4-{7-[3-Cyano-4-(tetrahydro-pyran-4-ylamino)-phenyl]-furo[3,2-b]pyridin-2-yl}-N-(2,2-difluoro-cyclohexylmethyl)-3-methoxy-benzamide] | 100 to 1000 nM | 100 to 1000 nM |
| CN(C)C(=O)c1ccc(-c2cc3nccc(-c4ccc(OC5CCOCC5)c(C#N)c4)c3o2)c(O)c1 [Compound 264, 4-(7-(3-cyano-4-(tetrahydro-2H-pyran-4-yloxy)phenyl)furo[3,2-b]pyridin-2-yl)-3-hydroxy-N,N-dimethylbenzamide] | < 100 nM | < 100 nM |
| COc1cc(C(=O)N(C)C)cnc1-c1cc2ncc(C3CC3)c(-c3ccc(OC4CCOCC4)c(C#N)c3)c2o1 [Compound 323, 6-(7-(3-cyano-4-(tetrahydro-2H-pyran-4-yloxy)phenyl)-6-cyclopropylfuro[3,2-b]pyridin-2-yl)-5-methoxy-N,N-dimethylnicotinamide] | > 5000 nM | > 5000 nM |
| CN(C)C(=O)c1ccc(-c2cc3nccc(-c4ccc(OC5CCOCC5)c(C#N)c4)c3o2)nc1 [Compound 243, 6-(7-(3-cyano-4-(tetrahydro-2H-pyran-4-yloxy)phenyl)furo[3,2-b]pyridin-2-yl)-N,N-dimethylnicotinamide] | < 100 nM | < 100 nM |
| CN(C)C(=O)c1ccc(-c2cc3nccc(-c4ccc(C5(N6CCOCC6)CC5)c(C#N)c4)c3o2)cc1 [Compound 287, 4-(7-[3-cyano-4-[1-(morpholin-4-yl)cyclopropyl]phenyl]furo[3,2-b]pyridin-2-yl)-N,N-dimethylbenzamide hydrochloride] | > 5000 nM | > 5000 nM |
| CN(C)C(=O)c1ccc(-c2cc3nccc(-c4ccc(C(C)(C)N5CCOCC5)c(C#N)c4)c3o2)cc1 [Compound 223, 4-(7-(3-cyano-4-(2-morpholinopropan-2-yl)phenyl)furo[3,2-b]pyridin-2-yl)-N,N-dimethylbenzamide hydrochloride] | < 100 nM | < 100 nM |
| COc1cc(C(=O)N(C)C2CCNC2)ccc1-c1cc2nccc(-c3ccc(OC4CCOCC4)c(C#N)c3)c2o1 (stereo not shown) [Compound 56, 4-{7-[3-Cyano-4-(tetrahydro-pyran-4-yloxy)-phenyl]-furo[3,2-b]pyridin-2-yl}-3-methoxy-N-methyl-N-pyrrolidin-3-yl-benzamide] | < 100 nM | < 100 nM |
| COc1cc(C(=O)N2C3CCC2COC3)ccc1-c1cc2nccc(-c3ccc(NC4CCOCC4)c(C#N)c3)c2o1 [Compound 94, 5-{2-[2-Methoxy-4-(3-oxa-8-aza-bicyclo[3.2.1]octane-8-carbonyl)-phenyl]-furo[3,2-b]pyridin-7-yl}-2-(tetrahydro-pyran-4-ylamino)-benzonitrile] | < 100 nM | < 100 nM |
